Source: US20250127759A1, “METHODS AND DOSING REGIMENS COMPRISING A CDK2 INHIBITOR FOR THE TREATMENT OF CANCER” (PFIZER INC., priority 2021, published 2025)
Marks after values point to notes of the source that are not given here.

Assays:
T-47D Cells = test: Combination cell proliferation assay, T47D; assay type: cell-based, human
Method: (§1) The combination effects of PF-07104091 with palbociclib were evaluated in a cell proliferation assay with MCF7 and T47D BC cell lines. […] Drug combinations were analyzed using the Dose Equivalence Principle, and the Loewe Volume score. When modeling synergy using the Dose Equivalence Principle, the Loewe Volume score for the combination compounds should be greater than the compound self-cross controls, and the Combination Index score for the combination compounds should be less than compound self-cross controls. […] Furthermore, the isobolograms set to an anti-proliferation threshold at 70% confirm a synergistic response.

MCF7 Cells = test: Combination cell proliferation assay, MCF7; assay type: cell-based, human
Method: as §1

NCI-H526 Model = test: In vivo efficacy, NCI-H526 small cell lung cancer model; design: species or system mice
Method: Female NSG (Jackson Lab) or Nu/nu (CRL) were subcutaneously implanted with tumor cells or fragments (8 mm^3 to 27 mm^3) into the dorsal region. For the MCF7 study, mice were supplemented with estrogen (sc implanted, 17β-estradiol, 0.36 mg, 90-day release pellet, Innovative Research of America, cat no. NE-121).
To establish the NCI-H526 model, tumor cells (4×10^6 cells/mouse with 50% Cultrex® Basement Membrane Matrix) were subcutaneously implanted in female Nu/nu mice. […] PF-07104091, Palbociclib at 10 mg/kg and CDK 2/4/6 inhibitor were administered (p.o.) BID (7 hr apart). TGI was assessed on Day 15 post first dose (or Day 20 post tumor cell implant).

HCC1428 = test: In vivo efficacy, HCC1428 breast cancer model; design: species or system mice; conditions: Day 42, 10 mg/kg BID PO, 10 mg/kg
Method: (§2) The HCC1428 model was established by implanting passage 4 tumor fragments into recipient mice. To establish the HCC1428 donor mice, tumor cells (5×10^6 cell/mouse with 50% Cultrex® Basement Membrane Matrix) were subcutaneously implanted in female NSG mice. […] All mice received treatment continuously until Day 42. TGI was assessed on Day 42 post first dose.

T47D = test: In vivo efficacy, T47D breast cancer model; design: species or system mice; conditions: Day 41, 10 mg/kg BID PO
Method: as §2, with “T47D” for “HCC1428”, “3” for “4”, “41.” for “42.”, “41” for “42”

ST941PBR PDX = test: In vivo efficacy, palbociclib-resistant ST941PBR PDX model; conditions: Day 28, 10 mg/kg BID PO
Method: Female NSG mice (Jackson Lab) were subcutaneously implanted with fragment (27 mm^3 to 64 mm^3 size) into the dorsal region. All mice for T47D, HCC1428 and ST941 PBR studies were supplemented with 8.5 μg/mL estradiol water (β-Estradiol Sigma-Aldrich, cat #E2758-5G) and gave ad libitum till end of study. For the in vivo efficacy studies, tumor volume and body weights were measured twice a week. Tumor volume was calculated using the [(Length×Width×Width)/2)] formula. TGI was calculated as 100*(1−ΔT/ΔC). The ΔC (ΔT) was obtained by subtracting the mean tumor burden in the vehicle (treated) group on the first day of treatment (Day 0) from the mean tumor burden in vehicle (treated) group on the assessment day. Statistical analysis was performed using ANCOVA when the mean tumor volume in vehicle treated mice reached tumor cutoff size.
The ST941 PBR palbociclib resistant model was obtained from XENOSTART™ LLC, San Antonio, Texas. We established model in house by continuous treatment of the ST941 PBR tumor bearing mice with PD-0332991 at 50 mg/kg, PO QD plus fulvestrant at 10 mg/kg, SC twice in the first week, then weekly thereafter. To propagate donors for the TGI study, tumors were transplanted to recipient mice. One week after the re-implantation, the recipient mice received continuous treatment with palbociclib plus fulvestrant (dosing schedule described above). After 1 to 2 serial in vivo propagation with the same treatment regimen, the resistant tumors in the range of 700 to 800 mm^3 were re-implanted for a study expansion. The remaining tumor fragments were viably frozen for future use.
The live donor mice were established by implanting ST941 PBR (p11) tumor fragments. Once reaching a range of 700 to 800 mm^3, the donor tumors were subsequently transplanted into secondary recipient mice for a study expansion. To maintain the resistant clones, the ST941 PBR tumor bearing mice were treated with PD-0332991 at 50 mg/kg, PO. QD plus fulvestrant at 10 mg/kg, SC twice in the first week, then weekly afterwards for 10 weeks. […] TGI was assessed on Day 28 post first dose.

CC(=O)c1c(C)c2cnc(Nc3ccc(N4CCNCC4)cn3)nc2n(C2CCCC2)c1=O [Palbociclib, palbociclib, reference compound]
Loewe Volume (T-47D Cells): −0.25
Best CI (T-47D Cells; Best CI Level 70): 0.96
Loewe Volume (MCF7 Cells): −0.16
Best CI (MCF7 Cells; Best CI Level 70): 0.94
TGI % (NCI-H526 Model; 10 mg/kg BID PO, Day 15): 33%
TGI % (NCI-H526 Model; 10 mg/kg BID PO, Day 15, listed as palbociclib): 33%
TGI % (NCI-H526 Model; 50 mg/kg SID PO, Day 15): 22%
TGI % (NCI-H526 Model; 50 mg/kg SID PO, Day 15, listed as palbociclib): 22%
TGI % (HCC1428): 44* %
TGI % (HCC1428; listed as palbociclib): 44%
TGI % (T47D): 72* %
TGI % (ST941PBR PDX): 15%
